Patent publication US10369130B2, “Antibacterial compounds” (AZIENDE CHIMICHE RIUNITE ANGELINI FRANCESCO A.C.R.A.F. …, priority 2014, dated 2019)
Counter-ions that a name gives are not always drawn.

Key:
Type in all cases: biochemical
Conditions in all cases: single concentration (200, 100 or 50 μM), in duplicate, versus the positive control (vehicle)
Topoisomerase IV [1] = target: T1, Topoisomerase IV (Staphylococcus aureus, UniProt P0C1S7+P0C1U9); assay: Topoisomerase IV decatenation assay (S. aureus)
T1 construct: purchased Inspiralis, UK
T1 sequence (P0C1S7 whole entry): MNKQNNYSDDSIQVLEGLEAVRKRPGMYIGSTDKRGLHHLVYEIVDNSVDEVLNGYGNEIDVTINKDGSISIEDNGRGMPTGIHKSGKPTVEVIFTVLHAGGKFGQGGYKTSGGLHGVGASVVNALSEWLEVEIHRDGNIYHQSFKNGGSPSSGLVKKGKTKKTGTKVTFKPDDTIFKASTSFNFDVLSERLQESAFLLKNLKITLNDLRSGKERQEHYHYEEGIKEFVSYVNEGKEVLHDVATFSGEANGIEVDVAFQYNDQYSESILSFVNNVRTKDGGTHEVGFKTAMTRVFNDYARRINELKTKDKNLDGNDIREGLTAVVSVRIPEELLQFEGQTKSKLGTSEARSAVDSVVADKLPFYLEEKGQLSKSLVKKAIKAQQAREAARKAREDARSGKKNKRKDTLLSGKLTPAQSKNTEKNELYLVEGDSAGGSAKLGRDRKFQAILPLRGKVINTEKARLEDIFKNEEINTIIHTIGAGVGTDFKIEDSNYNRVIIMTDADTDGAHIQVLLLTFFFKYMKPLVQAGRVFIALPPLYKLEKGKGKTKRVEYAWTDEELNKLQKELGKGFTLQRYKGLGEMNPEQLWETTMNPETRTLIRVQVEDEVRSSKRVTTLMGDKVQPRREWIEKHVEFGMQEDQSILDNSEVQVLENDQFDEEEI
T1 sequence (P0C1U9 whole entry): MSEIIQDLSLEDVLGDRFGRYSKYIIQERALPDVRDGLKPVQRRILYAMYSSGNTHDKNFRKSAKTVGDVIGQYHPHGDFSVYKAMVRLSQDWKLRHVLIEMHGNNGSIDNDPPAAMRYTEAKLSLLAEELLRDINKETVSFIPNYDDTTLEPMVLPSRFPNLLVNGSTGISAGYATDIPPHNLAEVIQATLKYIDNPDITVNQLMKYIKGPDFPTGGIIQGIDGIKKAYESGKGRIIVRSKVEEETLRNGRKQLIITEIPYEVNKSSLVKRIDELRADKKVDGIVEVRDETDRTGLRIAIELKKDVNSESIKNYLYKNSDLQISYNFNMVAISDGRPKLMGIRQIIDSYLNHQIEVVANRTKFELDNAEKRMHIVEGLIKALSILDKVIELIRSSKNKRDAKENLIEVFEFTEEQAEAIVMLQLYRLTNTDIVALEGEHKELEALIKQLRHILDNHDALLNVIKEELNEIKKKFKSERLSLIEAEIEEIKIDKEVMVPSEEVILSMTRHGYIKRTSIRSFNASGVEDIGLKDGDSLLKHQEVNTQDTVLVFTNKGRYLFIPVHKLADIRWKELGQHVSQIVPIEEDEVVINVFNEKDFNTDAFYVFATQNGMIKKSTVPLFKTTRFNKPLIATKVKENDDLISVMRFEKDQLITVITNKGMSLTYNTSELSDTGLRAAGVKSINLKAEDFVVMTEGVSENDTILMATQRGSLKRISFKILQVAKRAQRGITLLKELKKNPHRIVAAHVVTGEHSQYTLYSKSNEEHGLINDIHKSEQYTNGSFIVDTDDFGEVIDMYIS
Experimental: (§1) The above compounds were tested for the inhibition of the enzyme DNA gyrase in a gyrase supercoiling assay and for the inhibition of the enzyme topoisomerase IV in a decatenation assay, in both Gram positive and Gram negative bacteria, according to the following methods.
(§2) Both the assays were carried out according to a set-up method modified from the article to Blanche F, et al. “Differential Behaviors of Staphylococcus aureus and Escherichia coli Type II DNA Topoisomerases”, Antimicrob.
(§3) The compounds were screened at single concentration (200, 100 or 50 μM), in duplicate.
(§4) Ciprofloxacin and novobiocin were used as reference compounds, at single concentration of 200 and 50 μM, respectively.
(§5) Topoisomerase IV Decatenation Assay
(§6) S. aureus and E. coli Topoisomerase IV decatenation kits (Inspiralis, UK) were used. A master mix with a total volume sufficient for the number of reactions to perform was prepared with the following reagents: 5× assay buffer (50 mM HEPES-KOH (pH 7.6), 100 mM potassium glutamate, 10 mM magnesium acetate, 10 mM DTT, 1 mM ATP, 50 μg/ml albumin), kDNA substrate (200 ng/reaction), RNase-DNase free water. Aliquots of this mix were dispensed in each tube, then 10× compound stock solutions or vehicle control (DMSO), were added in each reaction tube.
(§7) Reaction was started with Topoisomerase IV enzyme (0.5 U/reaction) addition.
(§8) A sample added with an equal volume of dilution buffer was used as negative control (without enzyme).
(§9) The reaction tubes were gentle vortexed and incubated 30 minutes at 37° C. Each reaction was stopped by adding 30 μl of Stop Buffer and 30 μl of chloroform/isoamyl alcohol (24/1), briefly vortexed for 5-10 seconds and centrifuged at 20000×g for 2 minutes. Samples taken from the upper phase were loaded into 1% agarose gel and subjected to electrophoresis for 1 hour at 80V constant voltage in TAE (40 mM Tris-acetate, 2 mM EDTA).
(§10) Data acquisition and analysis. Due to the high molecular mass, kDNA could not enter an agarose gel under normal electrophoresis conditions, but remained in the wells. In the presence of Topo IV topoisomerase mini-circles (2.5 Kb) were released from kDNA by decatenation and were quickly and easily resolved in the gel at relatively high voltages.
(§11) Bands were visualized by ethidium bromide staining (dil 1:20000) for 30 minutes followed by destaining in distilled water for 10 minutes.
(§12) For single concentration screening assay, in order to evaluate the compounds activity on the enzymes, the bands of decatenated DNAs in the gel were photographed by a digital imaging system ImageQuant LAS 4000 (GE Healthcare) according to manufacturer's instructions.
(§13) The fluorescent intensity of each band was analyzed by ImageQuant TL software and it was expressed as volume (volume of the uncalibrated quantity of material in the image feature after subtraction of the background intensity by using rolling ball method).
(§14) Each band intensity was compared, as percentage, to vehicle sample band intensity, which served as positive control, on the same gel.
(§15) Inhibitory activity was expressed as percent of inhibition versus the positive control.

DNA gyrase [2] = target: T2, DNA gyrase (Escherichia coli, UniProt P0AES4+P0AES6); assay: DNA gyrase supercoiling assay (E. coli)
T2 construct: purchased Inspiralis, UK
T2 sequence (P0AES4 whole entry, one chain of several): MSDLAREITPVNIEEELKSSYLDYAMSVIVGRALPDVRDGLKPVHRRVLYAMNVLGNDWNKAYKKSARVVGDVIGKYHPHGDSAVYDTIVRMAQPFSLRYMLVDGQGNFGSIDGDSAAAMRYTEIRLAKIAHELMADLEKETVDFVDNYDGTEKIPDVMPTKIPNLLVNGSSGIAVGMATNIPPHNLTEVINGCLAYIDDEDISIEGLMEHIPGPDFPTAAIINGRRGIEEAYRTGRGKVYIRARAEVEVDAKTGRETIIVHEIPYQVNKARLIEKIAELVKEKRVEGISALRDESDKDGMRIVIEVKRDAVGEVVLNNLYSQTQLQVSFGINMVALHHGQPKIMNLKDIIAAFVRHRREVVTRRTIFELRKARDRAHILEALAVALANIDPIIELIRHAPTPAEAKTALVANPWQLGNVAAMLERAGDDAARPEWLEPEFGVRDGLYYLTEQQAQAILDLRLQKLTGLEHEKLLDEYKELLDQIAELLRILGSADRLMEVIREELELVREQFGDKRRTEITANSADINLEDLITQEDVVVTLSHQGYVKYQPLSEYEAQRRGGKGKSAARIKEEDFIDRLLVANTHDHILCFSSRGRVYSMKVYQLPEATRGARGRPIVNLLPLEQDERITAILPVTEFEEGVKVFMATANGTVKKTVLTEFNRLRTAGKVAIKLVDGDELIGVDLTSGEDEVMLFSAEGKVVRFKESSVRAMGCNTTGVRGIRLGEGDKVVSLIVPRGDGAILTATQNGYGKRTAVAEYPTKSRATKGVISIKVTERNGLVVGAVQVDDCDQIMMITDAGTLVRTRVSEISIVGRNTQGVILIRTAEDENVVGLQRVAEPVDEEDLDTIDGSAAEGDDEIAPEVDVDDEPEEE
Experimental: as §1, §2, §3, §4
(§16) DNA Gyrase Supercoiling Assay.
(§17) Reagents from S. aureus and E. coli Gyrase Supercoiling Assay kits (Inspiralis, UK) were used. A master mix with a total volume sufficient for the number of reactions to perform was prepared with the following reagents: 5× assay buffer, relaxed pBR322 substrate (0.5 μg/reaction), RNase-DNase free water. Aliquotes of this mix were dispensed in each tube, then 10× compound stock solutions or vehicle control (DMSO), were added to each reaction tube.
(§18) Reaction was started with E. Coli (2 U/reaction) or S. aureus (1 U/reaction) gyrase enzyme addition.
as §8
(§19) The reaction tubes were gentle vortexed and incubated 30 minutes at 37° C. Each reaction was stopped by adding 30 μl of Stop Buffer and 30 μl chloroform/isoamyl alcohol (24/1), briefly vortexed for 5-10 seconds and centrifuged at 20000×g for 2 minutes. Samples were loaded onto 1% agarose gel and subjected to electrophoresis for 1 hour at 80V constant voltage in TAE (40 mM Tris-acetate, 2 mM EDTA).
(§20) Data acquisition and analysis. Treatment of relaxed pBR322 with DNA gyrase converted the relaxed topoisomers (DNAs of different linking number) to the supercoiled form of the plasmid, which migrates faster on an agarose gel. An upper band might also be visible, which consists of open-circular (nicked) DNA which is present in the relaxed substrate but co-migrates with some of the relaxed topoisomers.
as §11
(§21) In order to evaluate the compounds activity on the enzyme, the bands of supercoiled DNAs in the gel were photographed by a digital imaging system ImageQuant LAS 4000 (GE Healthcare) according to manufacturer's instructions.
(§22) The fluorescent intensity of each band was analysed by ImageQuant TL software and it was expressed as volume (volume of the uncalibrated quantity of material in the image feature after subtraction of the background intensity by using rolling ball method).
as §14, §15

Topoisomerase IV [3] = target: T3, Topoisomerase IV (Escherichia coli, UniProt P0AFI2+P20083); assay: Topoisomerase IV decatenation assay (E. coli)
T3 construct: purchased Inspiralis, UK
T3 sequence (P20083 whole entry): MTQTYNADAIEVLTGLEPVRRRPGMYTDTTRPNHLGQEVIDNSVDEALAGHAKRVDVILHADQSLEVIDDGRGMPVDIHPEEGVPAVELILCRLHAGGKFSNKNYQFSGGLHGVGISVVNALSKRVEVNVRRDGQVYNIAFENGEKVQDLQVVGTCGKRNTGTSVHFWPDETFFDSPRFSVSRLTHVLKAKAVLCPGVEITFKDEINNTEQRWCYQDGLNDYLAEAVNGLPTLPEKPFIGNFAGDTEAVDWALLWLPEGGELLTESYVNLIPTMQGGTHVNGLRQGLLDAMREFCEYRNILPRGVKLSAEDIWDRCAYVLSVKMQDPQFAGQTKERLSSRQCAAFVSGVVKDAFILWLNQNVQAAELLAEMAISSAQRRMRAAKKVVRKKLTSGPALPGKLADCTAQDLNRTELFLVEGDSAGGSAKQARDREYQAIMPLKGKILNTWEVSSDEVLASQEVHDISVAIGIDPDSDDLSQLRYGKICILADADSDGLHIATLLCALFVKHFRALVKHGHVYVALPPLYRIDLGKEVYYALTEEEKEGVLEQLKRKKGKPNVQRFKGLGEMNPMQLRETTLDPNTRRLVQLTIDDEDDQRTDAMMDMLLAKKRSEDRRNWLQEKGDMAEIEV
T3 sequence (P0AFI2 whole entry): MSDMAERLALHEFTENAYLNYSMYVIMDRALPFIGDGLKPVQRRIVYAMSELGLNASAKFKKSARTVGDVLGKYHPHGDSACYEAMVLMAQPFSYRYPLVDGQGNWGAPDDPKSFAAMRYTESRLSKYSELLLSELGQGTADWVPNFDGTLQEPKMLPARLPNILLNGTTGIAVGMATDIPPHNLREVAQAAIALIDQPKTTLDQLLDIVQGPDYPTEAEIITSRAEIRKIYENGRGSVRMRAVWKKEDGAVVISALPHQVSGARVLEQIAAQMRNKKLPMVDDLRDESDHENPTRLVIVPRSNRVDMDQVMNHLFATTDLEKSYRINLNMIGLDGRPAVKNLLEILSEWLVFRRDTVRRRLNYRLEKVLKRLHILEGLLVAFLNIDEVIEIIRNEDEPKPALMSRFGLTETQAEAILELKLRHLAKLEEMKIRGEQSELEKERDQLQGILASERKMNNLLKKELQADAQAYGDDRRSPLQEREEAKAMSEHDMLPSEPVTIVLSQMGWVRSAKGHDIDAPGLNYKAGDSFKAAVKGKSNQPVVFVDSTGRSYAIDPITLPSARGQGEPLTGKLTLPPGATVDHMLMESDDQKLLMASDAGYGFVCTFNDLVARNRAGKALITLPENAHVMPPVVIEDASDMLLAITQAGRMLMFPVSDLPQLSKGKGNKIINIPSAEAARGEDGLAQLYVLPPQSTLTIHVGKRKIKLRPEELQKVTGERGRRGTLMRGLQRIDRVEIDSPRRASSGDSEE
Experimental: as §1, §2, §3, §4, §5, §6, §7, §8, §9, §10, §11, §12, §13, §14, §15

DNA gyrase [4] = target: T4, DNA gyrase (Staphylococcus aureus, UniProt P0A0K8+P20831); assay: DNA gyrase supercoiling assay (S. aureus)
T4 construct: purchased Inspiralis, UK
Experimental: as §1, §2, §3, §4, §16, §17, §18, §8, §19, §20, §11, §21, §22, §14, §15

Row | Structure (SMILES) | % inhibition Topo IV (Topoisomerase IV [1]) | % inhibition DNA gyrase (DNA gyrase [2]) | % inhibition Topo IV (Topoisomerase IV [3]) | % inhibition DNA gyrase (DNA gyrase [4])
1 | O=c1cc(NC2CCCC(N3CCN(c4nccc5ccccc45)CC3)C2)c2ccccc2o1 (centres unmarked) [Compound 74, 4-({3-[4-(isoquinolin-1-yl)piperazin-1-yl]cyclohexyl}amino)-2H-chromen-2-one hydrochloride] | n/a (n/a = not active) | 65% | n/a (n/a = not active) | 61%
2 | O=c1cc(N2CCN(CCCNc3cc(=O)oc4ccccc34)CC2)c2ccccc2[nH]1 [Compound 68, 4-(4-{3-[(2-oxo-2H-chromen-4-yl)amino]propyl}piperazin-1-yl)quinolin-2(1H)-one hydrochloride] | n/a (n/a = not active) | 100% | n/a (n/a = not active) | n/a (n/a = not active)
3 | O=c1cc(NCCCN2CCN(c3nccc4ccccc34)CC2CC(F)(F)F)c2ccccc2o1 (centres unmarked) [Compound 83, 4-({3-[4-(isoquinolin-1-yl)-2-(2,2,2-trifluoroethyl)piperazin-1-yl]propyl}amino)-2H-chromen-2-one hydrochloride] | n/a (n/a = not active) | 69% | n/a (n/a = not active) | n/a (n/a = not active)
4 | CN(CCCN1CCN(c2nccc3ccccc23)CC1)c1cc(=O)oc2ccccc12 [Compound 53, 4-[{3-[4-(isoquinolin-1-yl)piperazin-1-yl]propyl}(methyl)amino]-2H-chromen-2-one hydrochloride] | n/a (n/a = not active) | 64% | n/a (n/a = not active) | 57%
5 | O=C(NCCCN1CCN(c2nccc3ccccc23)CC1)c1cnc2ccoc2c1 [Compound 31, N-{3-[4-(isoquinolin-1-yl)piperazin-1-yl]propyl}furo[3,2-b]pyridine-6-carboxamide hydrochloride] | n/a (n/a = not active) | n/a (n/a = not active) | n/a (n/a = not active) | 65%
6 | Fc1ccc(F)c(CNCCCN2CCN(c3nccc4ccccc34)CC2)c1 [Compound 38, N-(2,5-difluorobenzyl)-3-[4-(isoquinolin-1-yl)piperazin-1-yl]propan-1-amine hydrochloride] | n/a (n/a = not active) | n/a (n/a = not active) | n/a (n/a = not active) | 63%
7 | O=c1cc(NC[C@H](O)[C@@H](O)C2CCN(c3nccc4ccc(F)cc34)CC2)c2ccccc2o1 (racemic) [Compound 128, (2S,3S) and (2R,3R) 4-({3-[1-(7-fluoroisoquinolin-1-yl)piperidin-4-yl]-2,3-dihydroxypropyl}amino)-2H-chromen-2-one hydrochloride] | n/a (n/a = not active) | n/a (n/a = not active) | n/a (n/a = not active) | 66%
8 | O=C(O)C1CN(c2nccc3ccccc23)CCN1CCCNc1cc(=O)oc2ccccc12 (centres unmarked) [Compound 82, 4-(isoquinolin-1-yl)-1-{3-[(2-oxo-2H-chromen-4-yl)amino]propyl}piperazine-2-carboxylic acid hydrochloride] | n/a (n/a = not active) | 85% | n/a (n/a = not active) | 82%
